Reference: patent US20250059187A1, “COVALENTLY BINDING INHIBITORS OF G12S, G12D AND/OR G12E MUTANTS OF K-RAS GTPASE” (The Regents of the University of California, priority 2021, published 2025)

How the values were obtained:
Type in all cases: binding
wild type K-Ras [1] = target: T1, wild type K-Ras (Homo sapiens, UniProt P01116); test: Covalent modification of recombinant wild-type K-Ras by whole-protein mass spectrometry; conditions: 23° C.; for % covalent modification of wild type K-Ras: 24-h incubation, 100 μM compound, pH 7.5
T1 construct: human K-Ras (wildtype, aa 1-169); 6xHis tag + TEV cleavage site (N, cleaved yes); made in house; host or cells: E. coli BL21(DE3)
Procedure: (§1) Test compounds were prepared as 100× stock solutions in DMSO. K-Ras proteins were diluted with SEC Buffer (20 mM HEPES 7.5, 150 mM NaCl, 1 mM MgCl2) to 400 nM or 1 μM. In a typical reaction, 0.5 μL 100× compound stock was mixed with 50 μL diluted K-Ras protein, and the resulting mixture was incubated for the desired amount of time. The extent of modification was assessed by electrospray mass spectrometry using a Waters Xevo G2-XS system equipped with an Acquity UPLC BEH C4 1.7 μm column. The mobile phase was a linear gradient of 5-95% acetonitrile/water+0.05% formic acid. For kinetic measurements, a 2× compound solution was first prepared in SEC Buffer, which was then mixed with 400 nM K-Ras(G12S) protein at 1:1 (v/v) ratio. Injection time stamps were used to calculate elapsed time.
as §1, with “K-Ras(G12D)” for “K-Ras(G12S)”

wild type K-Ras [2] = target: T1, wild type K-Ras; test: Covalent modification of test protein after incubation with compound; conditions: 24-h incubation with 100 μM compound at 23° C. at pH 7.5
K-Ras G12D = target: T2, K-Ras G12D (Homo sapiens, UniProt P01116, G12D); test: as above; conditions: 24-h incubation with 100 μM compound at 23° C. at pH 7.5
T2 construct: human K-Ras (G12D, aa 1-169); 6xHis tag + TEV cleavage site (N, cleaved yes); made in house; host or cells: E. coli BL21(DE3)

K-Ras G12E = target: T3, K-Ras G12E (Homo sapiens, UniProt P01116, G12E); test: as above; conditions: 24-h incubation with 100 μM compound at 23° C. at pH 7.5
T3 construct: human K-Ras (G12E, aa 1-169); 6xHis tag + TEV cleavage site (N, cleaved yes); made in house; host or cells: E. coli BL21(DE3)

K-Ras(G12S) = K-Ras(G12S) (Homo sapiens, UniProt P01116, G12S); test: Covalent modification of recombinant K-Ras(G12S) by whole-protein mass spectrometry; parameters: human K-Ras (G12S, aa 1-169); 6xHis tag + TEV cleavage site (N, cleaved yes); made in house; host or cells: E. coli BL21(DE3); conditions: 23° C.; for % covalent modification of K-Ras G12S: 24-h incubation, 100 μM compound, pH 7.5
Procedure: as §1, with “The mobile phase was a linear gradient of 5-95% acetonitrile/water+0.05% formic acid.” left out
as §1, with “The mobile phase was a linear gradient of 5-95% acetonitrile/water+0.05% formic acid.” left out, “K-Ras(G12D)” for “K-Ras(G12S)”

Row | SMILES | covalent adducts with wild-type K-Ras protein (wild type K-Ras [1]; 10 μM compound, 4 μM protein) | % covalent modification of wild type K-Ras (wild type K-Ras [1]) [%] | % covalent modification of wild type K-Ras (wild type K-Ras [2]) [%] | % covalent modification of K-Ras G12D (K-Ras G12D) [%] | % covalent modification of K-Ras G12E (K-Ras G12E) [%] | covalent reaction with K-Ras(G12S)·GDP (K-Ras(G12S); 10 μM compound) | % covalent modification of K-Ras G12S (K-Ras(G12S)) [%]
1 | CN1CCC[C@H]1COc1nc2c(c(N3CCC4OC(=O)C4C3)n1)CCN(c1cccc3cccc(Cl)c13)C2 (stereo partly shown) [2′] | neither of these compounds formed covalent adducts | 0 | 0 | 6.0 | 7.0 | did not yield any covalent adduct | 23.0
2 | C[C@@H]1C(=O)O[C@H]1C(=O)N1[C@@H]2CC[C@H]1CN(c1nc(OCC34CCCN3CCC4)nc3c(F)c(-c4cccc5cccc(Cl)c45)ncc13)C2 [(2R, 3S)-3] |  |  | 0 | 100 |  |  | 
3 | CC(C)[C@@H]1C(=O)O[C@H]1C(=O)N1[C@@H]2CC[C@H]1CN(c1nc(OCC34CCCN3CCC4)nc3c(F)c(-c4cccc5cccc(Cl)c45)ncc13)C2 [(2R, 3S)-4] |  |  | 0 | 100 |  |  | 
4 | C#Cc1cccc2cccc(-c3ncc4c(N5C[C@H]6CC[C@@H](C5)N6C(=O)[C@@H]5OC(=O)[C@H]5C(C)C)nc(OCC56CCCN5CCC6)nc4c3F)c12 [(2R, 3S)-5] |  |  | 0 | 100 | 0 |  | 
5 | C#Cc1c(F)ccc2cc(O)cc(-c3ncc4c(N5C[C@H]6CC[C@@H](C5)N6C(=O)[C@@H]5OC(=O)[C@H]5C(C)C)nc(OC[C@@]56CCCN5C[C@H](F)C6)nc4c3F)c12 [(2R, 3S)-6] |  |  | 0 | 100 | 0 |  | 
6 | O=C1C[C@H](C(=O)N2[C@@H]3CC[C@H]2CN(c2nc(OCC45CCCN4CCC5)nc4c(F)c(-c5cccc6cccc(Cl)c56)ncc24)C3)O1 [(R)-2] |  |  | 0 | 100 |  |  | 
7 | Cc1ccc2[nH]ncc2c1-c1cc2ncnc(N3CC(C(=O)N[C@H]4COC4=O)C3)c2cc1Cl [Compound 03-099] |  |  | 18.6 | 23.4 | 16.8 |  | 
8 | Cc1ccc2[nH]ncc2c1-c1cc2ncnc(N3CC(C(=O)N[C@@H]4COC4=O)C3)c2cc1Cl [Compound 03-100] |  |  | 22.6 | 17.7 | 18.5 |  | 
9 | O=C1O[C@@H]2CCN(c3ncnc4c(F)c(-c5ccccc5F)c(Cl)cc34)C[C@H]12 [Compound 04-005] |  | 0 | 0 | 0 | 0 |  | 0
10 | Cc1ccc2[nH]ncc2c1-c1cc2ncnc(N3CCC(C(=O)N[C@H]4COC4=O)CC3)c2cc1Cl [Compound 04-022] |  |  | 4.6 | 4.1 | 2.1 |  | 
11 | Cc1ccc2[nH]ncc2c1-c1cc2ncnc(N3CCC(C(=O)N[C@@H]4COC4=O)CC3)c2cc1Cl [Compound 04-023] |  |  | 1.5 | 2.7 | 2.1 |  | 
12 | CC1(c2cc(NCC(=O)N3CC[C@H]4OC(=O)[C@H]4C3)c(O)cc2Cl)CC1 [Compound 06-092] |  | 8.0 | 8.0 | 2.4 | 7.4 |  | 0
13 | CC1(c2cc(NCC(=O)N3CC[C@H]4C(=O)O[C@H]4C3)c(O)cc2Cl)CC1 [Compound 06-093] |  | 4.8 | 4.8 | 2.4 | 5.3 |  | 0
14 | CC1(c2cc(NCC(=O)N[C@H]3COC3=O)c(O)cc2Cl)CC1 [Compound 06-094] |  |  | 0 | 0 |  |  | 
15 | CC1(c2cc(NCC(=O)N[C@@H]3COC3=O)c(O)cc2Cl)CC1 [Compound 06-095] |  |  | 0 | 0 |  |  | 
16 | CC1(c2cc(NCC(=O)N3CC[C@H]4OC(=O)[C@@]4(C)C3)c(O)cc2Cl)CC1 [Compound 08-043] |  | 0 | 0 | 0 | 0 |  | 
17 | CC1(c2cc(NCC(=O)N3CC[C@@]4(C)C(=O)O[C@H]4C3)c(O)cc2Cl)CC1 [Compound 08-044] |  | 0 | 0 | 0 | 0 |  | 
18 | CN1CCC[C@@H]1COc1nc2c(c(N3CC[C@@]4(C)C(=O)O[C@H]4C3)n1)CCN(c1cccc3cccc(Cl)c13)C2 [Compound 12-028] |  | 0 | 0 | 0 | 0 |  | 19.0
19 | CN1CCC[C@@H]1COc1nc2c(c(N3CC[C@H]4OC(=O)[C@@]4(C)C3)n1)CCN(c1cccc3cccc(Cl)c13)C2 [Compound 12-044] |  | 0 | 0 | 0 | 0 |  | 0
20 | CN1CCC[C@@H]1COc1nc2c(c(N3C[C@@H]4OC(=O)[C@@H]4C3)n1)CCN(c1cccc3cccc(Cl)c13)C2 [Compound 12-058] |  | 6.0 | 6.0 | 5.0 | 7.0 |  | 94.0
21 | CN1CCC[C@@H]1COc1nc2c(c(N3CCC4(CC3)CNC4=O)n1)CCN(c1cccc3cccc(Cl)c13)C2 [Compound 12-064] |  | 0 | 0 | 0 | 0 |  | 0
22 | CN1CCC[C@@H]1COc1nc2c(c(N3CCN4C(=O)C[C@H]4C3)n1)CCN(c1cccc3cccc(Cl)c13)C2 [Compound 12-074] |  | 0 | 0 | 0 | 0 |  | 0
23 | CN1CCC[C@@H]1COc1nc2c(c(N3CC[C@H]4C(=O)O[C@H]4C3)n1)CCN(c1cccc3cccc(Cl)c13)C2 [Compound 12-077] |  | 7.5 | 7.5 | 6.9 | 8.6 |  | 100
